Assay results as given in patent publication US9155301B2, “Antimicrobial agent comprising a cysteine component covalently bound to a substrate in particular by binding through an S-S bridge via a spacer molecule” (priority 2005, dated 2015).

System: Staphylococcus aureus (B5381, a clinical isolate)
Assay: Inhibition of bacterial growth in culture incubated with modified surface
Assay type: cell-based
Details: Example 11; dissolved in culture at 50 μg/ml and 5 μg/ml; initial culture exceeding 4 million cfu/ml
Method: The following analysis was performed with three (3) different strains of bacteria, but the applications are not limited to these: A clinical isolate (from a patient with sepsis) of Gram positive bacterium Staphylococcus aureus, (a clinical isolate B5381), the Gram positive bacterium Bacillus megaterium (strain Bm11), the Gram negative bacterium Escherichia coli (strain D21). This selection of bacteria comprises both Gram positive and Gram negative bacteria including bacteria that are of significant problems clinically.
[…] LB medium (Luria Bertani broth) has been inoculated with specific bacterial strain, but not limited to this medium. The strain selected has been plated on an agar plate of selected medium the day before, and permitted to grow over night at 37° C. Several colonies were scraped from the plate and used to inoculate the medium which subsequently was allowed to grow up to an optical density of 0.4. […] The number of bacteria was determined by plating serial dilutions and counting colonies in the appropriate dilutions. […]
Subsequent to incubation (in the presently described case: 2.5 h), the disc was removed from each tube using a sterile pair of tweezers. The culture in which the disc had been incubated was in parallel transferred to a separate sterile eppendorf tube, and its titer was determined as described. […]

With `N[C@@H](CS)C(=O)O` [dissolved L-cysteine, L-cysteine] the “inhibition of growth in culture with dissolved substance” value was “No inhibition”.
